Source: patent US20210395689A1, “METHOD FOR PRODUCING INSULIN-PRODUCING CELLS” (KATAOKA CORPORATION, priority 2018, published 2021)

Assays:
human fibroblasts = assay: Direct induction from human fibroblasts into insulin-producing cells, amount of insulin secreted; format: cell-based; conditions: culturing for 14 days in differentiation induction medium; 3 μM CHIR99021, 7.5 μM forskolin, 1.5 μM BRD7389, 5 μM LY294002; BI-D1870 5 μM or 10 μM; FIGS. 1 to 4
Text: The insulin-producing cell produced by the present invention process can be detected, identified, and isolated using, for example, a morphological change of a cell, a characteristic property of an insulin-producing cell, or a specific marker (e.g., an anti-insulin antibody). Moreover, the secretory capacity of the obtained insulin-producing cell can also be evaluated by quantifying the amount of secreted insulin using sandwich ELISA.
The human fibroblasts used as the material were purchased from DS Pharma Biomedical Co., Ltd. The fibroblasts are derived from human skin.
Human fibroblasts were seeded in 35-mm dishes coated with gelatin (Cat #: 190-15805, manufactured by Wako Pure Chemical Industries, Ltd.) at 5×10^4 cells/dish, and cultured in DMEM medium (manufactured by Gibco) supplemented with 10% fetal bovine serum (FBS), 100 U/mL penicillin, and 100 μg/mL streptomycin until confluent under conditions of 37° C. and 5% CO2. Note that DMEM refers to Dulbecco's Modified Eagle's Medium.
The medium of dishes of the human fibroblasts described above was replaced with the differentiation induction medium described below. […]

pancreatic α-cells = conditions: reported in Non-Patent Document 7; cited from earlier work

O=C1c2ccccc2-c2c(NCCc3ccccc3)c(=O)[nH]c3cccc1c23 [BRD7389]
insulin secretion by insulin-producing cells directly differentiated from human fibroblasts (human fibroblasts): a considerable amount of insulin secretion was observed
expression of insulin genes in pancreatic α-cells (pancreatic α-cells): capacity of activating the expression of insulin genes
